Like-named read-outs stand apart in the source and are kept apart here.
Legend:
Type in all cases: cell-based
[1] = tested on: Enterobacter cloacae strain GGT036 [Accession No. KCTC 12672BP]; assay: Inhibition of growth by furfural (Test Example 2); details: for IC50: LB medium with 1% glucose, 30 °C
Method: (§1) The term “IC50” refers to the concentration of the toxic substance required to inhibit the maximum growth of the microorganism by 50%.
LB media were supplemented with 1% glucose as a carbon source to prepare culture media. To the culture media was added furfural at different concentrations of 20 mM, 40 mM, and 60 mM. The growth rates of the strain in the furfural-containing media were compared with the growth rate of the strain in the furfural-free medium.
After 50 mL of each culture medium was added to an Erlenmeyer flask, Enterobacter cloacae strain GGT036 [Accession No. KCTC 12672BP] was inoculated at an initial OD600 of 1, followed by culture at 30 ° C.
(§2) The half maximal inhibitory concentration (IC50) values of furfural were calculated. As a result, the IC50 value against Enterobacter cloacae strain GGT036 [Accession No. KCTC 12672BP]

E. coli = assay: Inhibition of growth by furfural, IC50 (Test Example 2); details: Escherichia coli; against E. coli; read-out: half maximal inhibitory concentration (IC50) of furfural
Method: as §1, §2

[2] = tested on: Corynebacterium glutamicum; assay: as above; details: against Corynebacterium glutamicum; read-out: half maximal inhibitory concentration (IC50) of furfural
[3] = tested on: Corynebacterium glutamicum (Comparative Example 2); assay: Resistance to furfural, growth by turbidity (Test Example 1); details: 30 mM furfural, LB with 1% glucose, 30 °C, 24 h
Method: (§3) The degrees of growth of Enterobacter cloacae strain GGT036 [Accession No. KCTC 12672BP], E. coli (Comparative Example 1), and Corynebacterium glutamicum (Comparative Example 2) in media containing 30 mM furfural were compared by turbidity measurements to identify the resistance of Enterobacter cloacae strain GGT036 to furfural.
(§4) The media used were LB media supplemented with 1% glucose. An observation was made to determine the dependence of the growth of the strains in the media containing 30 mM furfural (FIG. 2B) and the furfural-free media (FIG. 2A) on the presence or absence of furfural.
(§5) After 7 mL of each medium was added to a glass tube (24 mm), the colonies obtained in Example 1 were inoculated into the medium, followed by culture at 30° C. for 24 h.

[4] = tested on: E. coli (Comparative Example 1); assay: as above; details: 30 mM furfural, LB with 1% glucose, 30 °C, 24 h
Method: as §3, §4, §5

[5] = tested on: Enterobacter cloacae strain GGT036 [Accession No. KCTC 12672BP]; assay: as above; details: 30 mM furfural, LB with 1% glucose, 30 °C, 24 h
Method: as §3, §4, §5

SMILES: O=Cc1ccco1 [furfural]
- OD value of culture ([1]; 60 mM furfural, after 30 h of culturing, initial OD600 of 1): ≤ 2
- IC50 ([1]; Enterobacter cloacae, read-out: half maximal inhibitory concentration (IC50) of furfural, against Enterobacter cloacae strain GGT036): 45 to 55 mM
- growth rate of strain ([1]; furfural concentration increasing from 0 mM to 40 mM): slightly retarded
- IC50 ([1]; read-out: half maximal inhibitory concentration (IC50) of furfural, against Enterobacter cloacae strain GGT036): 47.7 mM
- IC50 (E. coli): 24.9 mM
- IC50 [2]: 10 mM
- growth of strain in furfural-containing medium [3]: not grown
- growth of strain in furfural-containing medium [4]: not grown
- growth of strain in furfural-containing medium [5]: cell growth was observed

Reference: patent US20160152942A1, “METHOD FOR ISOLATING HIGHLY FURFURAL RESISTANT STRAIN AND STRAIN ISOLATED BY THE METHOD” (priority 2014, published 2016)
